From the supplement of paper PMC10307832

Tests used:
Experiment in all cases: relative viability (nuclei count vs DMSO), 5 days (fraction); higher = more cells survive
Elesclomol + Bortezomib = compound: CN(NC(=O)CC(=O)NN(C)C(=S)c1ccccc1)C(=S)c1ccccc1 [Elesclomol] + CC(C)C[C@H](NC(=O)[C@H](Cc1ccccc1)NC(=O)c1cnccn1)B(O)O [Bortezomib] (partner 0.002 µM)
In short: (§1)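 Cells from lung cancer lines were seeded into 1536-well plates and, one day later, dosed by pin tool. Treatments were either a single drug or a fixed dose of an anchor drug with five library-drug doses (not always all listed) in √10 steps. After 5 days, nuclei were stained in a one-step fixation (final 0.05% Triton X-100, 1% formaldehyde, 1 ug/ml Hoechst) and counted on 4× images, and relative viability is the treated-to-vehicle nuclei ratio, as the median of duplicate plates.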

Elesclomol + Luminespib = compound: CN(NC(=O)CC(=O)NN(C)C(=S)c1ccccc1)C(=S)c1ccccc1 [Elesclomol] + CCNC(=O)c1noc(-c2cc(C(C)C)c(O)cc2O)c1-c1ccc(CN2CCOCC2)cc1 [Luminespib] (partner 0.01 µM)
In short: as §1

Elesclomol + Foretinib = compound: CN(NC(=O)CC(=O)NN(C)C(=S)c1ccccc1)C(=S)c1ccccc1 [Elesclomol] + COc1cc2c(Oc3ccc(NC(=O)C4(C(=O)Nc5ccc(F)cc5)CC4)cc3F)ccnc2cc1OCCCN1CCOCC1 [Foretinib] (partner 0.25 µM)
In short: as §1

Elesclomol + Tozasertib = compound: CN(NC(=O)CC(=O)NN(C)C(=S)c1ccccc1)C(=S)c1ccccc1 [Elesclomol] + Cc1cc(Nc2cc(N3CCN(C)CC3)nc(Sc3ccc(NC(=O)C4CC4)cc3)n2)n[nH]1 [Tozasertib] (partner 0.1 µM)
In short: as §1

Elesclomol + Vorinostat = compound: CN(NC(=O)CC(=O)NN(C)C(=S)c1ccccc1)C(=S)c1ccccc1 [Elesclomol] + O=C(CCCCCCC(=O)Nc1ccccc1)NO [Vorinostat] (partner 1 µM)
In short: as §1

| Cell Line | relative viability (Elesclomol + Bortezomib; first compound 0.003162 µM) | relative viability (Elesclomol + Bortezomib; first compound 0.01 µM) | relative viability (Elesclomol + Bortezomib; first compound 0.03162 µM) | relative viability (Elesclomol + Bortezomib; first compound 0.1 µM) | relative viability (Elesclomol + Luminespib; first compound 0.003162 µM) | relative viability (Elesclomol + Luminespib; first compound 0.01 µM) | relative viability (Elesclomol + Luminespib; first compound 0.03162 µM) | relative viability (Elesclomol + Luminespib; first compound 0.1 µM) | relative viability (Elesclomol + Foretinib; first compound 0.003162 µM) | relative viability (Elesclomol + Foretinib; first compound 0.01 µM) | relative viability (Elesclomol + Foretinib; first compound 0.03162 µM) | relative viability (Elesclomol + Foretinib; first compound 0.1 µM) | relative viability (Elesclomol + Tozasertib; first compound 0.003162 µM) | relative viability (Elesclomol + Tozasertib; first compound 0.01 µM) | relative viability (Elesclomol + Tozasertib; first compound 0.03162 µM) | relative viability (Elesclomol + Tozasertib; first compound 0.1 µM) | relative viability (Elesclomol + Vorinostat; first compound 0.003162 µM) | relative viability (Elesclomol + Vorinostat; first compound 0.01 µM) | relative viability (Elesclomol + Vorinostat; first compound 0.03162 µM) | relative viability (Elesclomol + Vorinostat; first compound 0.1 µM) |
| --- | --- | --- | --- | --- | --- | --- | --- | --- | --- | --- | --- | --- | --- | --- | --- | --- | --- | --- | --- | --- |
| 201T | 1.09 | 1.07 | 1.08 | 1.05 | 1.01 | 1.02 | 0.978 | 0.562 | 0.945 | 0.671 | 0.265 | 0.265 | 0.984 | 0.88 | 0.911 | 0.536 | 0.968 | 0.995 | 0.869 | 0.68 |
| A-427 | 0.956 | 0.908 | 0.99 | 0.483 | 0.701 | 0.498 | 0.27 | 0.117 | 0.981 | 0.956 | 0.917 | 0.157 | 0.226 | 0.186 | 0.149 | 0.0996 | 0.823 | 0.755 | 0.192 | 0.15 |
| ABC-1 | 0.133 | 0.23 | 0.25 | 0.228 | 0.254 | 0.206 | 0.322 | 0.223 | 0.255 | 0.221 | 0.259 | 0.215 | 0.193 | 0.203 | 0.18 | 0.187 | 0.426 | 0.249 | 0.262 | 0.244 |
| BEN | 0.698 | 0.57 | 0.265 | 0.25 | 0.333 | 0.232 | 0.158 | 0.237 | 0.493 | 0.467 | 0.296 | 0.265 | 0.592 | 0.399 | 0.45 | 0.402 | 0.585 | 0.563 | 0.448 | 0.385 |
| CAL-12T | 1.01 | 0.555 | 0.257 | 0.119 | 0.328 | 0.115 | 0.0856 | 0.0463 | 1.04 | 1.16 | 0.263 | 0.144 | 0.268 | 0.17 | 0.0901 | 0.0485 | 0.66 | 0.245 | 0.101 | 0.0721 |
| COR-L23 | 0.809 | 0.625 | 0.579 | 0.252 | 0.598 | 0.316 | 0.206 | 0.0873 | 0.977 | 0.667 | 0.418 | 0.198 | 0.234 | 0.155 | 0.15 | 0.0966 | 0.378 | 0.156 | 0.144 | 0.0678 |
| COR-L 105 | 0.751 | 0.577 | 0.347 | 0.214 | 0.721 | 0.161 | 0.307 | 0.164 | 0.985 | 0.698 | 0.44 | 0.176 | 0.385 | 0.285 | 0.223 | 0.142 | 1 | 0.57 | 0.361 | 0.336 |
| ChaGo-K-1 | 0.794 | 0.402 | 0.273 | 0.275 | 0.524 | 0.541 | 0.184 | 0.128 | 0.838 | 0.95 | 0.34 | 0.186 | 0.223 | 0.177 | 0.147 | 0.163 | 0.791 | 0.638 | 0.338 | 0.146 |
| EKVX | 0.997 | 0.633 | 0.312 | 0.208 | 0.831 | 0.539 | 0.169 | 0.145 | 0.779 | 0.736 | 0.398 | 0.189 | 0.343 | 0.281 | 0.199 | 0.141 | 0.659 | 0.336 | 0.241 | 0.253 |
| EMC-BAC-2 | 1.08 | 0.948 | 0.866 | 0.637 | 1.23 | 1.04 | 0.535 | 0.383 | 1.1 | 0.877 | 0.784 | 0.392 | 0.307 | 0.265 | 0.275 | 0.213 | 0.486 | 0.231 |  | 0.22 |
| EPLC-272H | 0.918 |  | 1.03 | 0.481 | 0.333 |  | 0.576 | 0.125 | 0.67 |  | 0.672 | 0.0988 | 0.223 |  | 0.331 | 0.101 | 0.178 | 0.0788 | 0.133 | 0.129 |
| H3255 | 0.792 | 0.465 | 0.418 | 0.289 | 0.883 | 0.875 | 0.547 | 0.395 | 0.765 | 0.884 | 0.57 | 0.398 | 0.569 | 0.525 | 0.405 | 0.364 | 0.843 | 0.62 | 0.426 | 0.44 |
| HARA | 1.1 | 1.1 | 1.01 | 0.332 | 0.545 | 0.669 | 0.1 | 0.0826 | 0.875 | 0.878 | 0.691 | 0.238 | 0.155 | 0.108 | 0.0878 | 0.0669 | 0.607 | 0.542 | 0.616 | 0.163 |
| HCC-15 | 0.998 | 0.905 | 0.662 | 0.42 | 0.27 | 0.194 | 0.11 | 0.0457 | 0.946 | 0.857 | 0.355 | 0.171 | 0.358 | 0.292 | 0.204 | 0.159 | 0.81 | 0.776 | 0.645 | 0.265 |
| HCC-44 | 0.906 | 0.794 | 0.876 | 0.628 | 1.01 | 0.86 | 0.213 | 0.178 |  |  |  |  | 0.897 | 0.794 | 0.17 | 0.194 | 1.09 | 1.16 | 1.16 | 1.08 |
| HCC-78 | 0.487 | 0.419 | 0.447 | 0.494 |  |  |  |  | 0.516 | 0.574 | 0.548 | 0.583 | 0.378 | 0.426 | 0.399 | 0.483 | 0.46 | 0.38 | 0.36 | 0.553 |
